This is an account of results in patent publication US10308644B2, “Heterocyclic compounds as immunomodulators” (Incyte Corporation, priority 2016, dated 2019).

For the assay, the target named is PD-1/PD-L1 (Homo sapiens (Human), UniProt Q9NZQ7). Briefly: PD-1/PD-L1 Homogeneous Time-Resolved Fluorescence (HTRF) Binding Assay. The note with it: recombinant human PD-1 (3 nM) and PD-L1 (10 nM), 25° C., PBS pH 7.4. Summed up:
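Fc-tagged human PD-1 (25-167, 3 nM) and His-tagged PD-L1 (19-238, 10 nM) preincubated with inhibitor 40 min in PBS pH 7.4, 0.05% Tween-20, 0.1% BSA, 1% DMSO, 25 °C. Binding detected by HTRF (Eu anti-IgG/APC anti-His, 665/620 nm) after 60 min; IC50 from percent control activity.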
(In general: TR-FRET usually uses a lanthanide donor and a delayed reading to cut background.)

Sequence of PD-1/PD-L1 (Q9NZQ7 19-238): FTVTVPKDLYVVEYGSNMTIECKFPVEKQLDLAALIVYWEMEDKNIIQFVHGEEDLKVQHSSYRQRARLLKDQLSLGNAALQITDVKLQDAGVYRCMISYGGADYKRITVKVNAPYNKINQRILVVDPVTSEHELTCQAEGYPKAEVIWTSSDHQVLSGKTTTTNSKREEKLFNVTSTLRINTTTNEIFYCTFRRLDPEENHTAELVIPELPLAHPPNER

Regarding `Cc1c(Nc2nccc3cc(C4CN(CCO)C4)cnc23)cccc1-c1cccc(-c2nc3cc(CN4CC[C@@H](C(=O)O)C4)cc(C#N)c3o2)c1C` [Example 96, (R)-1-((7-cyano-2-(3′-(3-(1-(2-hydroxyethyl)azetidin-3-yl)-1,7-naphthyridin-8-ylamino)-2,2′-dimethylbiphenyl-3-yl)benzo[d]oxazol-5-yl)methyl)pyrrolidine-3-carboxylic acid], the IC50 was not above 10 nM.
For `Cc1c(-c2nc3cc(CN4CC[C@@H](C(=O)O)C4)cc(C#N)c3o2)cccc1-c1cccc(Nc2nccc3cc(C4CCCN4)cnc23)c1Cl` (stereo partly drawn) [Example 97, (3R)-1-((2-(2′-chloro-2-methyl-3′-(3-(pyrrolidin-2-yl)-1,7-naphthyridin-8-ylamino)biphenyl-3-yl)-7-cyanobenzo[d]oxazol-5-yl)methyl)pyrrolidine-3-carboxylic acid], the 50% inhibitory concentration (IC50) was not above 10 nM.
The value for `Cc1c(Nc2nccc3cc(CN4CC[C@@H](O)C4)cnc23)cccc1-c1cccc(-c2nc3cc(CN4CC[C@@](C)(C(=O)O)C4)cc(C#N)c3o2)c1C` [Example 100, (R)-1-((7-cyano-2-(3′-(3-(((R)-3-hydroxypyrrolidin-1-yl)methyl)-1,7-naphthyridin-8-ylamino)-2,2′-dimethylbiphenyl-3-yl)benzo[d]oxazol-5-yl)methyl)-3-methylpyrrolidine-3-carboxylic acid] was not above 10 nM; that for `Cc1c(Nc2nccc3cc(CN4CC[C@@H](O)C4)cnc23)cccc1-c1cccc(-c2nc3cc(CNCCC(=O)O)cc(C#N)c3o2)c1C` [Example 101, (R)-3-((7-cyano-2-(3′-(3-((3-hydroxypyrrolidin-1-yl)methyl)-1,7-naphthyridin-8-ylamino)-2,2′-dimethylbiphenyl-3-yl)benzo[d]oxazol-5-yl)methylamino)propanoic acid] was not above 10 nM.
The value for `Cc1c(Nc2nccc(CN3CC[C@@H](O)C3)c2F)cccc1-c1cccc(-c2nc3cc(CN4CC[C@@H](C(=O)O)C4)cc(C#N)c3o2)c1C` [Example 102, (R)-1-((7-cyano-2-(3′-(3-fluoro-4-(((R)-3-hydroxypyrrolidin-1-yl)methyl)pyridin-2-ylamino)-2,2′-dimethylbiphenyl-3-yl)benzo[d]oxazol-5-yl)methyl)pyrrolidine-3-carboxylic acid] was not above 10 nM; that for `CNC(=O)[C@@H]1CCN(Cc2cc(C#N)c3oc(-c4cccc(-c5cccc(-n6cc7c(n6)CN(C(C)C)CC7)c5Cl)c4C)nc3c2)C1` [Example 103, (R)-1-((2-(2′-chloro-3′-(6-isopropyl-4,5,6,7-tetrahydro-2H-pyrazolo[3,4-c]pyridin-2-yl)-2-methylbiphenyl-3-yl)-7-cyanobenzo[d]oxazol-5-yl)methyl)-N-methylpyrrolidine-3-carboxamide] was not above 10 nM.
As for `Cc1c(-c2nc3cc(CN4CC[C@@H](C(=O)NCCO)C4)cc(C#N)c3o2)cccc1-c1cccc(-n2cc3c(n2)CN(C(C)C)CC3)c1Cl` [Example 104, (R)-1-((2-(2′-chloro-3′-(6-isopropyl-4,5,6,7-tetrahydro-2H-pyrazolo[3,4-c]pyridin-2-yl)-2-methylbiphenyl-3-yl)-7-cyanobenzo[d]oxazol-5-yl)methyl)-N-(2-hydroxyethyl)pyrrolidine-3-carboxamide], the figure is not above 10 nM; as for `Cc1c(-c2nc3cc(CN4CC[C@@H](C(=O)O)C4)cc(C#N)c3o2)cccc1-c1cccc(-c2nc3c(s2)CN(C(=O)CN(C)C)C3)c1C` [Example 105, (R)-1-((7-cyano-2-(3′-(5-(2-(dimethylamino)acetyl)-5,6-dihydro-4H-pyrrolo[3,4-d]thiazol-2-yl)-2,2′-dimethylbiphenyl-3-yl)benzo[d]oxazol-5-yl)methyl)pyrrolidine-3-carboxylic acid], not above 10 nM.
In the case of `Cc1c(-c2nc3cc(CN4CC[C@@H](C(=O)O)C4)cc(C#N)c3o2)cccc1-c1cccc(-c2nc3c(s2)CN(C(=O)CCN(C)C)C3)c1C` [Example 106, (R)-1-((7-cyano-2-(3′-(5-(3-(dimethylamino)propanoyl)-5,6-dihydro-4H-pyrrolo[3,4-d]thiazol-2-yl)-2,2′-dimethylbiphenyl-3-yl)benzo[d]oxazol-5-yl)methyl)pyrrolidine-3-carboxylic acid], the IC50 is not above 10 nM.
In the case of `Cc1c(-c2nc3cc(CN4CC[C@@H](C(=O)O)C4)cc(C#N)c3o2)cccc1-c1cccc(-c2nc3c(s2)CN(C(=O)[C@@H]2CCCN2C)C3)c1C` [Example 107, (R)-1-((7-cyano-2-(2,2′-dimethyl-3′-(5-((8)-1-methylpyrrolidine-2-carbonyl)-5,6-dihydro-4H-pyrrolo[3,4-d]thiazol-2-yl)biphenyl-3-yl)benzo[d]oxazol-5-yl)methyl)pyrrolidine-3-carboxylic acid], the half-inhibitory concentration (IC50) is not above 10 nM.
For the compound `Cc1c(-c2nc3cc(CN4CC[C@@H](C(=O)O)C4)cc(C#N)c3o2)cccc1-c1cccc(-c2nc3c(s2)CN(C(=O)CN2CCN(C)CC2)C3)c1C` [Example 108, (R)-1-((7-cyano-2-(2,2′-dimethyl-3′-(5-(2-(4-methylpiperazin-1-yl)acetyl)-5,6-dihydro-4H-pyrrolo[3,4-d]thiazol-2-yl)biphenyl-3-yl)benzo[d]oxazol-5-yl)methyl)pyrrolidine-3-carboxylic acid], the IC50 is not above 10 nM.
Take `Cc1c(-c2nc3cc(CN4CC[C@@](C)(C(=O)O)C4)cc(C#N)c3o2)cccc1-c1cccc(-c2nc3c(s2)CN(C(=O)CN(C)C)C3)c1C` [Example 109, (R)-1-((7-cyano-2-(3′-(5-(2-(dimethylamino)acetyl)-5,6-dihydro-4H-pyrrolo[3,4-d]thiazol-2-yl)-2,2′-dimethylbiphenyl-3-yl)benzo[d]oxazol-5-yl)methyl)-3-methylpyrrolidine-3-carboxylic acid]: the IC50 was not above 10 nM.
Consider `Cc1c(-c2nc3cc(CN4CC[C@@H](C(=O)O)C4)cc(C#N)c3o2)cccc1-c1cccc(-c2nc3c(s2)CN(C(=O)CNC(C)C)C3)c1C` [Example 110, (R)-1-((7-cyano-2-(3′-(5-(2-(isopropylamino)acetyl)-5,6-dihydro-4H-pyrrolo[3,4-d]thiazol-2-yl)-2,2′-dimethylbiphenyl-3-yl)benzo[d]oxazol-5-yl)methyl)pyrrolidine-3-carboxylic acid], for which the 50% inhibitory concentration (IC50) is not above 10 nM.
Turning to `Cc1c(-c2nc3cc(CN4CC[C@@H](C(=O)O)C4)cc(C#N)c3o2)cccc1-c1cccc(-c2nc3c(s2)CN(C(=O)CN2CC[C@@H](O)C2)C3)c1C` [Example 111, (R)-1-((7-cyano-2-(3′-(5-(2-((R)-3-hydroxypyrrolidin-1-yl)acetyl)-5,6-dihydro-4H-pyrrolo[3,4-d]thiazol-2-yl)-2,2′-dimethylbiphenyl-3-yl)benzo[d]oxazol-5-yl)methyl)pyrrolidine-3-carboxylic acid], the IC50 is not above 10 nM.
The value for `Cc1c(-c2nc3cc(CN4CC[C@@H](C(=O)O)C4)cc(C#N)c3o2)cccc1-c1cccc(-c2nc3c(s2)CN(C(=O)CN2CC[C@H](O)C2)C3)c1C` [Example 112, (R)-1-((7-cyano-2-(3′-(5-(2-((S)-3-hydroxypyrrolidin-1-yl)acetyl)-5,6-dihydro-4H-pyrrolo[3,4-d]thiazol-2-yl)-2,2′-dimethylbiphenyl-3-yl)benzo[d]oxazol-5-yl)methyl)pyrrolidine-3-carboxylic acid] was not above 10 nM.

As usually defined, the IC50 is the concentration that inhibits the measured activity by half.
